One series relates to Mice. Nature of the series: Acute intracisternal toxicity (method of Melartin et al.), mice. Format: in vivo. How it is done:
(§1) Acute intracisternal toxicity was determined by the method of E. Melartin, P. Tuohimaa, R. Dabb, Investigative Radiology, 1970, vol. 5, n°1, 13-21.

The target in another series is proteins (Homo sapiens, UniProt P02768). The experiment in a line: Protein binding, Brodersen technique. Format: in vitro ADME. The source says:
The degree of the interaction with proteins is an index of the tolerance of contrast media. The lower this interaction, the better the tolerance.
The protein binding was investigated according to the Brodersen technique (J. of Clinical Investigation, 1974, vol. 4, 1353-1364).

The next series has as its system Rats. Nature of the series: Acute intracisternal toxicity (method of Melartin et al.), rats. Format: in vivo. How it is done:
as §1

Consider four compounds from patent US4474747A, “Process for increasing the tolerance of X-ray contrast media, and contrast media obtained thereby” (Guerbet S.A., priority 1981, dated 1984).

Chain of proteins (P02768 25-609): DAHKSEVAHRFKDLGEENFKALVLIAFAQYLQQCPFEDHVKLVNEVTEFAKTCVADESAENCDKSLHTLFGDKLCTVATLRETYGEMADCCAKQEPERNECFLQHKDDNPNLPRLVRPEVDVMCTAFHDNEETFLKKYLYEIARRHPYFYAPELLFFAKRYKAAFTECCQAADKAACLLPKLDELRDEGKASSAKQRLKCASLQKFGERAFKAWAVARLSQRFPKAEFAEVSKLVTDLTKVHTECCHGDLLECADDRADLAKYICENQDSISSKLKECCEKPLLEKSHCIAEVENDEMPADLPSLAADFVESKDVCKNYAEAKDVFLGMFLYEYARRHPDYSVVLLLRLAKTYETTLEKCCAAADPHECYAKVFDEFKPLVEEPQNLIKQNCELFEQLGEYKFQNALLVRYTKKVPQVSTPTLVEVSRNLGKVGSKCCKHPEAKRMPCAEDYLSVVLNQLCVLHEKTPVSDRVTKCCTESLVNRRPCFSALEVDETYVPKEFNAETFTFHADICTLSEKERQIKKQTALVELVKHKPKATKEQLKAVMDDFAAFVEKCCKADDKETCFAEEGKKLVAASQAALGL

In the case of `CC(=O)Nc1c(I)c(C(=O)O)c(I)c(C(=O)NCCO)c1I` [Telebrix], the “Acute toxicity IC (DL50) Mice” value in the series with Mice was determined as 0.2 g Eq iodine/kg. Broadly, the Kd is the constant that tells how readily two partners part at equilibrium. Read a low Kd as a tighter complex. In turn, `CNC(=O)c1c(I)c(C(=O)NCC(=O)Nc2c(I)c(C(=O)O)c(I)c(C(=O)NCCO)c2I)c(I)c(N(C)C(C)=O)c1I` [Methylglucamine ioxaglate] showed a Kd at proteins of 8.2 mM.

`CNC(=O)c1c(I)c(NC(C)=O)c(I)c(C(=O)O)c1I` [Contrix (methylglucamine iothalamate), methylglucamine iothalamate]: the “Acute toxicity IC (DL50) Rats” value in the series on Rats amounted to 0.028 mole/rat. For `O=C(CCCCC(=O)Nc1c(I)cc(I)c(C(=O)O)c1I)Nc1c(I)cc(I)c(C(=O)O)c1I` [Methylglucamine adipiodone], on proteins, the Kd is 0.0781 mM.
